This note sets out measurements from patent publication US10568949B2, “Method of eliciting an anti-tumor immune response with controlled delivery of TLR agonists in porous polymerlc devices” (President and Fellows of Harvard College, priority 2008, dated 2020).

The subject of data set [1] is B16-F10 melanoma cells. Briefly: Example 7: therapeutic vaccination of established B16-F10 melanoma.
Description: To assess PLG vaccine efficacy in the therapeutic setting, C57/BL6J mice were challenged with a subcutaneous injection of 5×10^5 B16-F10 melanoma cells (ATCC, Manassas, N.J.) in the back of the neck. At day 9 after tumor challenge PLG vaccines loaded with 3000 ng GM-CSF in combination with 100 μg of CpG-ODN, MPLA or P(I:C), and tumor lysates were implanted subcutaneously into the lower left flank of C57BL/6J mice. A subset of mice were vaccinated again 10 days after the initial vaccination (Days 19 and 23).
Mice challenged with 5×10^5B16-F10 melanoma cells were subsequently vaccinated at days 9 and 19, after tumors were established.
Data set [2] relates to B16-F10 melanoma cells. Briefly: Example 7: prophylactic vaccination, B16-F10 melanoma. The data set is classed as in vivo, C57BL/6J mice. More on the design: concentration or dose not given beside the values. The following applies: B16-F10 tumor lysates and GM-CSF, with or without TLR agonist; challenge at day 14.
The subject of data set [3] is dendritic cells. Nature of the data set: Example 7: DC recruitment and activation in matrices with GM-CSF and TLR agonists (FACS, day 7). Format: in vivo, C57BL/6J mice. Conditions: with GM-CSF. The text has this:
The cell suspensions were then poured through a 40 μm cell strainer to isolate cells from scaffold particles and the cells were pelleted and washed with cold PBS and counted using a Z2 coulter counter (Beckman Coulter). To assess, DC infiltration and activation, subsets of the total cell population isolated from PLG matrices were then stained with primary antibodies (BD Pharmingen, San Diego, Calif.) conjugated to fluorescent markers to allow for analysis by flow cytometry. APC-conjugated CD11c (dendritic cell marker), FITC-conjugated MHCII and PE-conjugated CD86 (B7, costimulatory molecule) stains were conducted for DC recruitment and activation analysis. To further delineate the presence of specific DC subsets, cells were also stained with APC-conjugated CD11c and PE-conjugated PDCA-1 (plasmacytoid DC marker) or APC-conjugated CD11c and PE-conjugated CD8 (CD8 DCs). To assess T-cell infiltration PE-Cy7 conjugated CD3 stains were performed in conjunction with APC-conjugated CD8a (CD8 T cells), and PE-conjugated FoxP3 (Treg) and analyzed with flow cytometry. Cells were gated according to single positive FITC, APC and PE stainings and using isotype controls. The percentage of cells staining positive for each surface antigen was recorded. To examine the ability of PLG matrices to recruit and activate dendritic cells in vivo, matrices delivering GM-CSF in combination with danger signals were implanted subcutaneously into the backs of C57BL/6J mice. The magnitude of DC infiltration and activation into the matrices was determined by FACS analysis of cell populations isolated from the polymeric material after 7 days.

In data set [4] the test system is B16-F10 tumors. Nature of the data set: Example 7: tumor infiltrating leukocyte (TIL) characterization. Also on record: species or system C57BL/6J mice. Conditions: mouse, in vivo. On the procedure:
On the indicated days, B16-F10 tumors were removed from mice, and digested in 1 mg/mL collagenase II (250 U/ml) (Worthington, Lakewood, N.J.) and 0.1 mg/mL DNase for 1 hour at 37° C. Dissociated cells were filtered through a 40-μm filter, and directly stained with antibodies for phenotype characterization by fluorescence-activated cell sorting (FACS) analysis. APC-anti-CD8 and PE-Cy7-anti CD3 were used to identify T cells isolated from the B16F10 tumors. These TILs were also costained with FITC-anti-IFNγ, and PE-anti-CD107a. All antibodies were obtained from eBioscience, San Diego, Calif.

The subject of data set [5] is IL-12p70. Briefly: Example 7: cytokine concentrations at implant site. Format: in vivo, C57BL/6J mice. The following applies: with GM-CSF.
Description: To determine in vivo IL-12p70 concentration at the matrix implant site, adjacent tissue was excised and digested with tissue protein extraction reagent. After centrifugation, the concentrations of IL-12, in the supernatant were then analyzed with ELISA (R&D systems), according to the manufacturer's instructions.
Data set [6] relates to TRP-2-specific cytotoxic T lymphocytes. Nature of the data set: Example 8: TRP-2-specific cytotoxic T lymphocytes in spleens (Day 10). Also on record: species or system C57BL/6J mice. The following applies: mouse, in vivo.
Data set [7] concerns bone marrow derived dendritic cells. Briefly: Example 8: transwell chemotaxis and chemokinesis of bone marrow derived DCs. The data set is classed as cell-based, C57BL/6 mice. The following applies: 12 h; for DC chemotaxis, migration higher than control condition: 500 ng/ml in bottom wells; for DC chemokinesis, increase in number of migrated cells: homogenous cytokine 500 ng/ml. On the procedure: Primary bone-marrow-derived dendritic cells (BMDCs) were flushed from the femurs of C57BL/6 mice and cultured in 100-mm bacteriological petri dishes (Falcon number 1029/Becton Dickinson). Cell culture medium RPMI-1640 (R10) (Sigma) was supplemented with 1% Penicillin-Streptomycin (Invitrogen), 2 mM 1-Glutamine (Invitrogen), 50 μM 2-mercaptoethanol (Sigma) and 10% heat-inactivated fetal bovine serum (FBS, Invitrogen). At day 0, bone marrow leukocytes were seeded at 2×10^6 cells per 100-mm dish in 10 ml R10 medium containing 20 ng/nil granulocyte-macrophage colony-stimulating factor (GM-CSF) (Peprotech). At day 3, another 10 ml R10 medium containing 20 ng/mL GM-CSF was added. to the plates. At days 6 and 8, half of the culture supernatant was collected and centrifuged, the cell pellet was resuspended in 10 ml fresh R10 containing 20 ng/mL GM-CSF, and placed back into the original plate. The non-adherent cell population in the culture supernatant was used between days 8 and 12 for all the experiments.
Transwell migration studies were performed by plating bone marrow derived dendritic cells in the top well of 6.5 mm transwell dishes (Costar, Cambridge, Mass.) with a pore size of 5 μm. The chemotactic effects of GM-CSF, FL (Flt3), and CCL20 on the migration of BMDCs was assessed by placing 500 ng/ml of recombinant murine GM-CSF, FL or CCL20 (Peprotech, Rocky Hill, N.J.) in the bottom wells and 3×10^5 DCs in the top wells. For chemokinesis studies, the concentration of cytokine in each compartment was equal at 500 ng/ml and 3×10^5 DCs were added to the top wells. The number of cells that migrated from the top well to the bottom well through the porous membrane was counted at the end of 12 h to quantify migration. Cells that had migrated to the bottom well were collected by treatment with 0.25% trypsin-0.03% ethylenediaminetetraacetic acid (EDTA, Invitrogen) and counted with a Z2 coulter counter (Beckman Coulter, Inc).

Data set [8] in a line: In vitro release / retention of GM-CSF, cytokines and TLR agonists from PLG scaffolds. Format: physicochemical. The following applies: for incorporated cytokine released from scaffolds: by day 4, in vitro; for daily release of protein: over the next 23 days after day 4. On the procedure:
To determine the incorporation efficiency of CpG-ODN incorporation, PLG scaffolds were prepared with 50 ug of CpG-ODN and digested in 1 ml of chloroform (Sigma Aldrich, and washed with 2 mls of aqueous buffer. The aqueous phase was isolated and the amount of CpG-ODN incorporated was determined by absorbance readings (260/280 and 260/230 ratios calculated at 0.2 mm pathlength) using a Nanodrop instrument, ND1000 (Nanodrop technologies, Wilmington, Del.). Similarly, to determine CpG-ODN release kinetics CpG-ODN loaded scaffolds were placed in 1 ml of Phosphate Buffer Solution (PBS) in an incubator (37° C.). At various timepoints, the PBS release media was collected and replaced with fresh media. The total amount of CpG-ODN incorporated into PLG scaffolds and released into PBS over time was analyzed and recorded.

Data set [9] relates to B16-F10 melanoma cells. Briefly: Example 8: therapeutic vaccination, B16-F10 melanoma. The following applies: vaccinated three days after tumor challenge. The data set is classed as in vivo, C57BL/6J mice.
Description: PLG scaffolds containing B16-F10 melanoma tumor lysates, 100 μg CpG-ODN in combination with 3 μg GM-CSF, Flt3L or CCL20 were implanted subcutaneously into the lower left flank of C57BL/6J mice to act as cancer vaccines. To assess PLG vaccine efficacy in the therapeutic setting, C57/BL6J mice were challenged with a subcutaneous injection of 5×10^5 B16-F10 melanoma cells (ATCC, Manassas, N.J.) in the back of the neck, and 3 days after tumor challenge PLG vaccines were implanted subcutaneously into the lower left flank. Animals were monitored for the onset of tumor growth (approximately 1 mm^3) and sacrificed for humane reasons when tumors grew to 20-25 mm (longest diameter).
Data set [10] relates to IL-12p70 and IFN-γ. Conditions: tumor lysate and CpG-ODN. On the procedure: To determine the in vivo IL-12p70 and IFN-γ concentration at the matrix implant site, adjacent tissue was excised and digested with tissue protein extraction reagent at Day 10 after implantation (Pierce). After centrifugation, the concentrations of IL-12 and IFN-γ, in the supernatant were then analyzed with ELISA (R&D systems), according to the manufacturer's instructions. To determine the generation of TRP-2-specific cytotoxic T lymphocytes, single cell suspensions were prepared at Day 10 from the spleens of mice immunized with PLG vaccines. These cells were initially stained with PE-H-2Kb/TRP2 pentamers (Sigma Aldrich), and subsequently stained with FITC-anti-CD8 and PE-CY7 CD3 mAb (mAb (BD Pharmingen, San Diego) before being analyzed using flow cytometry.

The subject of data set [11] is dendritic cells. Nature of the data set: Example 8: DC recruitment and activation in cytokine loaded PLG matrices (FACS, day 7). Format: in vivo, C57BL/6J mice. The following applies: for DC recruitment relative to blank PLG matrices: day 7. On the procedure:
To analyze DC recruitment by FACS analysis, scaffolds were excised and the ingrown tissue was digested into single cell suspensions using a collagenase solution (Worthingtion, 250 U/ml) that was agitated at 37° C. for 45 minutes. The cell suspensions were then poured through a 40 μm cell strainer to isolate cells from scaffold particles and the cells were pelleted and washed with cold PBS and counted using a Z2 coulter counter (Beckman Coulter). To assess, DC infiltration and activation, subsets of the total cell population isolated from PLG matrices were then stained with primary antibodies (BD Pharmingen, San Diego, Calif.) conjugated to fluorescent markers to allow for analysis by flow cytometry. APC-conjugated CD11c (dendritic cell marker), FITC-conjugated MHCII and PE-conjugated CD86 (B7, costimulatory molecule) stains were conducted for DC recruitment and activation analysis. To delineate the presence of the plasmacytoid DC subset, cells were also stained with APC-conjugated CD11c and PE-conjugated PDCA-1 (plasmacytoid DC marker). Cells were gated according to single positive FITC, APC and PE stainings using isotype controls. The percentage of cells staining positive for each surface antigen was recorded.

For monophosphoryl lipid A [MPLA], the “complete tumor regression, fraction of vaccinated animals” value in [1] (mouse, in vivo) is reported as “did not cause tumors to completely regress”. For the same molecule, the “increase in mean survival time over controls” value in [1] (vaccinated at days 9 and 19) is around 1.5 fold. In data set [2], this molecule came in with a survival rate of 80%. Also, in data set [3], the “CD8(+) DCs at implant site, higher than controls” value is “approximately 5 fold”; the “CD11c(+) cells positive for MHCII(+) and CD86(+), of total cells recruited” value is given as around 19%; the “enhancement of total number of recruited DCs compared to GM-CSF delivery alone” value came to 1.9 fold; the “increase in total number of activated DCs relative to control matrices” value is recorded as “approximately 15 fold”. Further, the “increase in IFNγ(+), CD107a(+) TILs in comparison to controls” value in data set [4] was around 1.4 fold. For the same molecule, in [5], the “IL-12 concentration lower than CpG-ODN and P(I:C)” value came to 2 fold; the “effect on IFN-α concentration at vaccine site” value is given as “no effect”; the “higher levels of TNF-α” value is recorded as 4 fold.
“polyinosinic:polycytidylic acid [P(I:C)]”: in data set [1] (mouse, in vivo), the “complete tumor regression, fraction of vaccinated animals” value is “over a third” and the “size of tumors that completely regressed / were eradicated” value was found to be 35 mm^2. The “long term survival of mice” value in [1] (vaccinated at days 9 and 19) is 33%. This molecule came in with a survival rate in data set [2] of 70%. Further, in data set [3], the “CD8(+) DCs at implant site, higher than controls” value is on record as “approximately 5 fold”; the “CD11c(+) cells positive for MHCII(+) and CD86(+), of total cells recruited” value was around 28%; the “enhancement of total number of recruited DCs compared to GM-CSF delivery alone” value amounted to 2.2 fold; the “increase in total number of activated DCs relative to control matrices” value was around 20 fold. The “increase in IFNγ(+), CD107a(+) TILs in comparison to controls” value in [4] is recorded as around 3.1 fold. Besides, the “effect on IFN-α concentration at vaccine site” value in data set [5] was “elevated levels”.

B1: Fms-related tyrosine kinase 3 ligand (protein, UniProt P49772 27-232, looked up)
Fms-related tyrosine kinase 3 …: GTPDCYFSHSPISSNFKVKFRELTDHLLKDYPVTVAVNLQDEKHCKALWSLFLAQRWIEQLKTVAGSKMQTLLEDVNTEIHFVTSCTFQPLPECLRFVQTNISHLLKDTCTQLLALKPCIGKACQNFSRCLEVQCQPDSSTLLPPRSPIALEATELPEPRPRQLLLLLLLLLPLTLVLLAAAWGLRWQRARRRGELHPGVPLPSHP
notes: recombinant murine cytokine (Peprotech) released from PLG matrices
Regarding B1, in [6], the “Trp2 specific CTLs in spleens, higher than control vaccines” value is recorded as “approximately 5 fold”. In addition, in data set [7], the “DC chemotaxis, migration higher than control condition” value is “no effect” and the “DC chemokinesis, increase in number of migrated cells” value was “no effect”. For the same molecule, in data set [8], the “incorporated cytokine released from scaffolds” value is around 36% and the “daily release of protein” value was “approximately 0.9%”. The same molecule registered a long-term survival rate in data set [9] of 75%. Also, in data set [10], the “increase in local concentration of IFN-γ over control scaffolds” value worked out at 13 fold and the “increase in local concentration of IL-12 over control scaffolds” value was determined as 8 fold. In data set [11], the “DC recruitment relative to blank PLG matrices” value turned out to be 2.5 fold. Also, in data set [11] (in combination with CpG-ODN), the “pDCs of total cells resident in scaffolds” value was “approximately 22%” and the “resident CD11c(+)PDCA-1(+) pDCs” value is recorded as “over 160,000”.

B2: CCL20 (protein, UniProt O89093 28-97, looked up)
C-C motif chemokine 20: ASNYDCCLSYIQTPLPSRAIVGFTRQMADEACDINAIIFHTKKRKSVCADPKQNWVKRAVNLLSLRVKKM
notes: as for B1
As to B2, in data set [7], the “DC chemotaxis, migration higher than control condition” value is listed as “no effect” and the “DC chemokinesis, increase in number of migrated cells” value was “no effect”. In addition, in data set [8], the “incorporated cytokine released from scaffolds” value is on record as around 26% and the “daily release of protein” value is reported as “approximately 0.9%”. In data set [9], the long-term survival rate is reported as 62%. In [10], the “increase in local concentration of IFN-γ over control scaffolds” value is “no effect” and the “increase in local concentration of IL-12 over control scaffolds” value is reported as 2 fold. In data set [11], the “DC recruitment relative to blank PLG matrices” value is 2.5 fold. Also, the “resident CD11c(+)PDCA-1(+) pDCs” value in data set [11] (in combination with CpG-ODN) is “approximately 110,000”.
